Test results from ChEMBL document CHEMBL5505970 (J Med Chem, 2024).
Activity calls are given as the source filed them. No cut-off for these calls is given here.

Tests used:
[1] = Toxicity in NOD-SCID mouse xenografted with human Granta-519 cells assessed as reticulocytes count at 5 mg/kg, po qd for 3 days and 4 days off intermittent dosing for 3 cycles co-administered with PARP inhibitor, niraparib and measured on day 21; type: organism-based; settings: in vivo, 504 h, time 21 day
[2] = Clearance in mouse liver microsomes at 1 uM in presence of NADPH by ESI/LC-MS/MS analysis; type: ADME, Microsome; settings: read-out: CLH
[3] = Toxicity in NOD-SCID mouse xenografted with human Granta-519 cells assessed as late stage erythroblasts at 30 mg/kg, po qd for 3 days and measured at 2 days after treatment discontinuation by flow cytometry; type: organism-based; settings: in vivo, 72 h, time 3 day
Granta-519 [4] = test: Antitumor activity against human Granta-519 cells xenografted in NOD-SCID mouse assessed as decrease in tumor volume at 30 mg/kg, po qd for 3 days and measured at 4 days after drug treatment cessation; type: functional, organism-based; settings: time 3.0 day
[5] = Toxicity in NOD-SCID mouse xenografted with human Granta-519 cells assessed as late stage erythroblasts in bone marrow at 10 mg/kg, po qd for 3 days and measured at 2 days after treatment cessation by flow cytometry; type: organism-based; settings: in vivo, 72 h, time 3 day
[6] = Toxicity in BALB/c mouse assessed as late stage erythroblasts in bone marrow at 10 mg/kg, po qd for 3 days and 4 days off intermittent dosing for 4 cycles by flow cytometry; type: organism-based; settings: in vivo, 672 h, time 28 day
[7] = Toxicity in NOD-SCID mouse xenografted with human Granta-519 cells assessed as changes in body weight at 10 mg/kg, po qd for 7 days; type: organism-based; settings: in vivo, 168 h, time 7 day
[8] = Clearance in dog hepatocytes at 1 uM measured per million cells by ESI/LC-MS/MS analysis; type: ADME, cell-based, Canis lupus familiaris, Hepatocyte; settings: read-out: CLH
[9] = Toxicity in BALB/c mouse assessed as depletion of erythroid lineage by measuring increase in myeloid to erythroid ratio in bone marrow at 10 mg/kg, po qd for 3 days; type: organism-based; settings: in vivo, 72 h, time 3 day
[10] = Toxicity in NOD-SCID mouse xenografted with human Granta-519 cells assessed as reticulocytes count at 5 mg/kg, po qd for 3 days and 4 days off intermittent dosing for 3 cycles co-administered with PARP inhibitor, niraparib from day 3 to day 6 in each cycle and measured on day 21; type: organism-based; settings: in vivo, 504 h, time 21 day
[11] = Toxicity in BALB/c mouse assessed as mature red blood cells at 10 mg/kg, po qd for 3 days; type: organism-based; settings: in vivo, 72 h, time 3 day
[12] = target: DNA-dependent protein kinase catalytic subunit (Homo sapiens, UniProt P78527); test: Inhibition of DNA-PK in human Jurkat cell lysates at 0.3 uM in presence of biotinylated ADP by KiNativ profiling based mass spectrometry; type: subcellular
[13] = Clearance in dog liver microsomes at 1 uM in presence of NADPH by ESI/LC-MS/MS analysis; type: ADME, Canis lupus familiaris, Microsome; settings: read-out: CLH
[14] = target: Serine/threonine-protein kinase ATR (Homo sapiens, UniProt Q13535); test: Inhibition of ATR in human Jurkat cell lysates at 0.003 to 0.3 uM in presence of biotinylated ADP by KiNativ profiling based mass spectrometry; type: subcellular; settings: dose 0.003-0.3 µM
[15] = Toxicity in NOD-SCID mouse xenografted with human Granta-519 cells assessed as early stage erythroblasts in bone marrow at 10 mg/kg, po qd for 3 days co-administered with PARP inhibitor, niraparib and measured at 2 days after treatment cessation by flow cytometry; type: organism-based; settings: in vivo, 72 h, time 3 day
[16] = Oral bioavailability in Beagle dog at 5 mg/kg formulated as suspension in 0.5% methocel and 0.02% SLS in 50 mM citrate buffer measured for 24 hrs by reverse phase liquid chromatography coupled to mass spectrometry; type: ADME, organism-based, Canis lupus familiaris; settings: in vivo
[17] = Toxicity in NOD-SCID mouse xenografted with human Granta-519 cells assessed as circulating reticulocytes at 30 mg/kg, po qd for 3 days and 4 days off treatment and measured on day 14; type: organism-based; settings: in vivo, 72 h, time 3 day
[18] = Toxicity in NOD-SCID mouse xenografted with human Granta-519 cells assessed as early stage erythroblasts in bone marrow at 10 mg/kg, po qd for 3 days and measured at 4 days after treatment cessation by flow cytometry; type: organism-based; settings: in vivo, 72 h, time 3 day
[19] = Toxicity in NOD-SCID mouse xenografted with human Granta-519 cells assessed as late stage erythroblasts in bone marrow at 10 mg/kg, po qd for 3 days co-administered with PARP inhibitor, niraparib and measured at 2 days after treatment cessation by flow cytometry; type: organism-based; settings: in vivo, 72 h, time 3 day
[20] = Toxicity in BALB/c mouse assessed as late stage erythroblasts in bone marrow at 10 mg/kg, po qd for 3 days and measured at 4 days after treatment discontinuation by flow cytometry; type: organism-based; settings: in vivo, 72 h, time 3 day
[21] = Clearance in monkey hepatocytes at 1 uM in presence of NADPH by ESI/LC-MS/MS analysis; type: ADME, cell-based, Macaca mulatta, Hepatocyte; settings: rhesus monkey
[22] = target: Serine/threonine-protein kinase mTOR (Homo sapiens, UniProt P42345); test: Inhibition of mTOR in human Jurkat cell lysates at 0.03 to 0.3 uM in presence of biotinylated ADP by KiNativ profiling based mass spectrometry; type: subcellular; settings: dose 0.03-0.3 µM
[23] = Oral bioavailability in cynomolgus monkey at 1 mg/kg formulated as suspension in 10% propylene glycol:18% PEG400 in water measured for 24 hrs by reverse phase liquid chromatography coupled to mass spectrometry; type: ADME, organism-based, Macaca fascicularis; settings: in vivo
[24] = Toxicity in NOD-SCID mouse xenografted with human Granta-519 cells assessed as early stage erythroblasts in bone marrow at 10 mg/kg, po qd for 3 days co-administered with PARP inhibitor, niraparib and measured at 4 days after treatment cessation by flow cytometry; type: organism-based; settings: in vivo, 72 h, time 3 day
[25] = Clearance in human hepatocytes at 1 uM measured per million cells by ESI/LC-MS/MS analysis; type: ADME, cell-based, Hepatocyte; settings: read-out: CLH
Granta-519 [26] = test: Antitumor activity against human Granta-519 cells xenografted in NOD-SCID mouse assessed as decrease in tumor volume at 25 mg/kg, po qd for 5 days and measured at 2 days after drug treatment cessation; type: functional, organism-based; settings: time 5.0 day
[27] = Oral bioavailability in Sprague-Dawley rat at 2.5 to 5 mg/kg formulated as a solution in 5% NMP:95% (10% VitE TPGS in water) measured for 24 hrs by reverse phase liquid chromatography coupled to mass spectrometry; type: ADME, organism-based; settings: in vivo, dose 2.5-5 mg/kg
[28] = Toxicity in BALB/c mouse assessed as morphological changes in myeloid lineage cells in bone marrow at 10 mg/kg, po qd for 3 days; type: organism-based; settings: in vivo, 72 h, time 3 day
[29] = target: Serine-protein kinase ATM (Homo sapiens, UniProt Q13315); test: Inhibition of ATM in human Jurkat cell lysates at 0.3 uM in presence of biotinylated ADP by KiNativ profiling based mass spectrometry; type: subcellular
Chain of Serine-protein kinase ATM (Q13315 whole entry): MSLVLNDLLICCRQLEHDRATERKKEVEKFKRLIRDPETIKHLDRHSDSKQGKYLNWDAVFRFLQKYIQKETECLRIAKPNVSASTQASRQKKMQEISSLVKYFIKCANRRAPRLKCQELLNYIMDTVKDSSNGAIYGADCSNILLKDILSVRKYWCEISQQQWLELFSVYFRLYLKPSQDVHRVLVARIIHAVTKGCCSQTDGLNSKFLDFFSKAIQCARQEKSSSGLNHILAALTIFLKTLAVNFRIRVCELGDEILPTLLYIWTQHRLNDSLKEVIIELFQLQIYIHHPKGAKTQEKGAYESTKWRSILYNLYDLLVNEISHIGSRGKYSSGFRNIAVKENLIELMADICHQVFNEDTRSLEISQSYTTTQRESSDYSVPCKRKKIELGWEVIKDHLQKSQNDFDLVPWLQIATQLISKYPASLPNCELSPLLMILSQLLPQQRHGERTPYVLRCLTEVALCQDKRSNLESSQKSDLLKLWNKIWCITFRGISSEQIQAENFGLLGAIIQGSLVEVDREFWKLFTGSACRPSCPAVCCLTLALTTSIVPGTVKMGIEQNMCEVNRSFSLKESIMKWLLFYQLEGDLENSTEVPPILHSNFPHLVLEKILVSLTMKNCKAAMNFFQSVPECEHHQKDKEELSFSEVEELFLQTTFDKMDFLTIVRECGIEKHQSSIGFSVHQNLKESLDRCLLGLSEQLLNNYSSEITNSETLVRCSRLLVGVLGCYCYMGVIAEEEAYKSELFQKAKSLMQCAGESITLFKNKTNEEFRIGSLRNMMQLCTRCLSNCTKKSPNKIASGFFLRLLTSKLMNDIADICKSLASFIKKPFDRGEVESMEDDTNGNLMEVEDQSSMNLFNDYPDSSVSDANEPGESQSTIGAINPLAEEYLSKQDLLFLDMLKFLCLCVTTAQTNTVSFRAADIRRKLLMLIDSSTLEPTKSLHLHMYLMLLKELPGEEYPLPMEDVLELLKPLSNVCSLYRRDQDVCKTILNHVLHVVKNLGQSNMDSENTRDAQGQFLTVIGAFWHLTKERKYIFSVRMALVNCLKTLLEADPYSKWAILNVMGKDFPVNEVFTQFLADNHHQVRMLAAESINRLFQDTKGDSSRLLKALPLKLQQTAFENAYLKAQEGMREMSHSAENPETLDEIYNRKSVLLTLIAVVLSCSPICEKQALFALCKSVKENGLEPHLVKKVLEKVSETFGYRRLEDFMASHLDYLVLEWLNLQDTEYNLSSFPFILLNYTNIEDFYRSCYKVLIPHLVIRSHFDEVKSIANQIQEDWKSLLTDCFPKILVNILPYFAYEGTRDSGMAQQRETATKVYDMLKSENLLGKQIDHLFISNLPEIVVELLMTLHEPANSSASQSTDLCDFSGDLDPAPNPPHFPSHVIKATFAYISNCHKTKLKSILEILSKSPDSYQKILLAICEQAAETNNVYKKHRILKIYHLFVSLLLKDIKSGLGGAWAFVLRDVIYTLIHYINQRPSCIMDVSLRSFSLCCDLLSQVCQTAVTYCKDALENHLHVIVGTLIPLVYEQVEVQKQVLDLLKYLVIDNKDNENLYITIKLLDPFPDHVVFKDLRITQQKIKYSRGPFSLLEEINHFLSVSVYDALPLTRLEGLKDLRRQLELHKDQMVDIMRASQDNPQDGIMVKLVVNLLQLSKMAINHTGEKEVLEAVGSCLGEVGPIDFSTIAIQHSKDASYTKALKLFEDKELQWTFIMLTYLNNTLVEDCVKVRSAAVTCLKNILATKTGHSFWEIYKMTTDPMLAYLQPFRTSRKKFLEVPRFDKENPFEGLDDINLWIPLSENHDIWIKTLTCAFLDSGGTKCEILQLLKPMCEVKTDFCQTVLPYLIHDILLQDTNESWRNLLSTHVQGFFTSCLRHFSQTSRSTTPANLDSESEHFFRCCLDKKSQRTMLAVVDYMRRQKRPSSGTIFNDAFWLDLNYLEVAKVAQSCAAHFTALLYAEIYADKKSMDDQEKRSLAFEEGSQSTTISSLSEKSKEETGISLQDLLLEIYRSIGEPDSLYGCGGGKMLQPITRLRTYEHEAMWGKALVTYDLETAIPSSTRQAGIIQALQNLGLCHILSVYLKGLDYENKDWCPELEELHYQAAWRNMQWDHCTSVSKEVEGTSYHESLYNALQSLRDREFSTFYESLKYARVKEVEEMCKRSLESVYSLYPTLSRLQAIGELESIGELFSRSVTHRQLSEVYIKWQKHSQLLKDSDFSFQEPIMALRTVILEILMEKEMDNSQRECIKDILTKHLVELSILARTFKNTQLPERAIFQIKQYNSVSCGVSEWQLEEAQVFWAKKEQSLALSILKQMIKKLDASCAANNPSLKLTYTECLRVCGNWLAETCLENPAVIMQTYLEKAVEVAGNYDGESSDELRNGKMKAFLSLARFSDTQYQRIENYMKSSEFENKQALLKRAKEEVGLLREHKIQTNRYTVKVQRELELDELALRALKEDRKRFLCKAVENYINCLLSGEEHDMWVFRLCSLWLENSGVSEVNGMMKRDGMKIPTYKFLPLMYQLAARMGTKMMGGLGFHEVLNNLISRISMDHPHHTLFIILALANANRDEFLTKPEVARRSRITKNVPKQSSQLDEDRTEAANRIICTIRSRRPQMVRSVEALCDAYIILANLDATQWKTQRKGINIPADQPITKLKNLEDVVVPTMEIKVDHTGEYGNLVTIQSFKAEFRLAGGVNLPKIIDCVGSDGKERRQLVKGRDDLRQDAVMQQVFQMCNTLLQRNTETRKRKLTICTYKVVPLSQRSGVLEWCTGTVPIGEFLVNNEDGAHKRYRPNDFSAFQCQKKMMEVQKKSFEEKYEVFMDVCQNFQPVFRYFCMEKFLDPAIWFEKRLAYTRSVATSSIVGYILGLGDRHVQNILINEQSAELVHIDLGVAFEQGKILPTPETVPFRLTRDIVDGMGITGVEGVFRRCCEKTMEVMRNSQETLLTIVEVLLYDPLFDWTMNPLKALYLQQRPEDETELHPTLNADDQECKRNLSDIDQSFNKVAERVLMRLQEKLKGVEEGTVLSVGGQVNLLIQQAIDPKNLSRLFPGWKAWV

[30] = Toxicity in NOD-SCID mouse xenografted with human Granta-519 cells assessed as red blood cells count at 5 mg/kg, po qd for 3 days and 4 days off intermittent dosing for 3 cycles co-administered with PARP inhibitor, niraparib from day 3 to day 6 in each cycle and measured on day 21; type: organism-based; settings: in vivo, 504 h, time 21 day
[31] = Toxicity in NOD-SCID mouse xenografted with human Granta-519 cells assessed as late stage erythroblasts in bone marrow at 10 mg/kg, po qd for 3 days and measured at 4 days after treatment cessation by flow cytometry; type: organism-based; settings: in vivo, 72 h, time 3 day

Q: With `C[C@@H]1COCCN1c1cc([C@]2(O)C[C@H]3CC[C@@H](C2)O3)c2cnn(-c3cc[nH]n3)c2n1` [CAMONSERTIB] as the molecule, how does the Activity [1] read?
A: Non-Toxic

Q: And the microsomal CLint at 1 µM [2]?
A: 25 µL/min/mg

Q: And the Activity [3]?
A: Non-Toxic

Q: And the Activity (Granta-519 [4])?
A: Active

Q: And the Activity [5]?
A: Non-Toxic

Q: And the Activity [6]?
A: Non-Toxic

Q: What about the Activity [7] of the same molecule?
A: Non-Toxic

Q: And the hepatocyte CLint at 1 µM [8]?
A: < 1 µL/min/1e6 cells

Q: What about the Activity [9] of the same molecule?
A: Toxic

Q: And the Activity [10]?
A: Non-Toxic

Q: And the Activity [11]?
A: Non-Toxic

Q: What about the inhibition [12] of the same molecule?
A: Active

Q: And the microsomal CLint at 1 µM [13]?
A: < 11.6 µL/min/mg

Q: What about the inhibition [14] of the same molecule?
A: Active

Q: And the Activity [15]?
A: Non-Toxic

Q: And the bioavailability [16]?
A: 113%

Q: And the Activity [17]?
A: Non-Toxic

Q: What about the Activity [18] of the same molecule?
A: Non-Toxic

Q: And the Activity [19]?
A: Non-Toxic

Q: And the Activity [20]?
A: Non-Toxic

Q: And the CLH [21]?
A: 3.6 µL/min

Q: What about the inhibition [22] of the same molecule?
A: Active

Q: And the bioavailability [23]?
A: 56%

Q: What about the Activity [24] of the same molecule?
A: Non-Toxic

Q: And the hepatocyte CLint at 1 µM [25]?
A: 1.5 µL/min/1e6 cells

Q: And the Activity (Granta-519 [26])?
A: Active

Q: What about the bioavailability [27] of the same molecule?
A: 66%

Q: And the Activity [28]?
A: Non-Toxic

Q: And the inhibition [29]?
A: Active

Q: What about the Activity [30] of the same molecule?
A: Non-Toxic

Q: What about the Activity [31] of the same molecule?
A: Non-Toxic
